From patent US9775902B2, “Compounds and methods for treatment of stroke” (FIBROGEN, INC, priority 2006, dated 2017) come the findings set out here.

Test [1] has as its system vascular endothelial growth factor (VEGF). The test can be described thus: VEGF expression in Kelly neuroblastoma cells. As to conditions: for VEGF: conditioned media after overnight incubation. It is filed as cell-based. Put shortly: (§1)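 Kelly neuroblastoma cells treated overnight with compound, 1% DMSO as negative control. EPO and VEGF secreted into conditioned media measured by QUANTIKINE immunoassay.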

The next test deals with erythropoietin (EPO). The test is described as follows: EPO expression in Kelly neuroblastoma cells. Format: cell-based. As to conditions: for EPO: conditioned media after overnight incubation. Put shortly: as §1
Test [2] concerns Wistar rats, transient occlusion of the middle cerebral artery. The test is described as follows: Rat model of transient middle cerebral artery occlusion (tMCAO): infarct volume and edema at 48 hours. Format: in vivo. The source says: The effect of compounds of the present invention on infarct volume and edema was examined in an animal model of ischemic stroke. For these studies, male Wistar rats (320 g) were subjected to transient occlusion of the middle cerebral artery. Rats were anesthetized with 3% isoflurane in oxygen. Aseptic technique was used for all procedures during these studies. The surgical site was clipped and cleaned with alcohol and surgical scrub. Each animal was placed on a warm water heating pad to maintain body temperature. A paramedian incision was made on the neck over the carotid artery. The tissue was bluntly dissected away to reveal the carotid artery and the carotid artery bifurcation. Sutures were placed around the proximal portion of the common carotid and the external carotid arteries and were then tied off. An incision was made in the common carotid, distal to the ligation and a pre-prepared filament (3-0 monofilament suture or like material) was placed in the carotid and advanced into the internal carotid artery. The filament was advanced approximately 20 millimeters past the carotid bifurcation until slight resistance was felt as it wedged inside the middle cerebral artery (MCA). Care was taken to not rupture the artery upon insertion of the filament. The filament was tied in place and the skin incision closed. At this time isoflurane was discontinued and the animals were allowed to awaken.
One hour after surgery, the success of MCA occlusion was assessed using the Bederson scale, as previously described. (See Bederson et al., (1986) Stroke, 17:1304-1308.) Sixty minutes after occlusion, the animals were re-anesthetized for reperfusion. The skin incision was reopened and the filament was carefully withdrawn from the MCA but not completely removed. Body temperature was taken every 15 minutes throughout the study to maintain normothermia. Animals that have undergone the MCA occlusion procedure may have difficulty in thermoregulation for a few hours after surgery. Animals were placed in a cooling or heating box as determined by their body temperature. Body temperature was maintained at 37.5° C.
Various compounds of the present invention were administered by oral gavage (p.o.) at reperfusion or at reperfusion and again at 24 hours after reperfusion in 0.5% CMC and 0.1% Polysorbate 80 at various doses (see Table 10 below). Forty-eight hours after MCA occlusion animals were euthanized with CO2 and their brains removed. After removal, the brain was sliced into 7 coronal sections, 2 mm thick. The sections were placed rostral side down in a petri dish and stained with 1% Triphenyl tetrazolium chloride for 20 minutes at 37° C. for determination of infarct volume. Brain sections were then digitally photographed and analyzed for changes in infarct volume and extent of edema. Infarct volumes were determined by measuring the infarcted (i.e., non-stained) areas of each brain section and multiplying this value by the section thickness. Extent of edema was determined by the net increase in volume of the ipsilateral cortex compared to that of the contralateral cortex of brain sections.

Test [3] relates to Wistar rats, transient MCA occlusion. The test can be described thus: Grip strength test in rat tMCAO. Format: in vivo. As to conditions: 60 mg/kg p.o. at 1.5 and 24 hours after reperfusion then 30 mg/kg every other day, days 7, 14, 21, and 28, vs non-treated control, FIG. 5. The source says: Rats subjected to cerebral ischemia following transient MCA occlusion have deficits in sensorimotor and neuromuscular function which can be assessed using various behavioral tests. (See, e.g., Aronowski et al. J Cereb Blood Flow Metab (1996) 16:705-713; and Colbourne et al. J Cereb Blood Flow Metab (2000) 20:1702-1708.) The effect of compounds of the present invention on various functional impairments associated with stroke was examined using an animal model of ischemic stroke. In this series of experiments, male Wistar rats (300 g) underwent behavioral testing after transient MCA occlusion. One day prior to MCAO surgery, the rats were trained to the grip strength meter and subjected to tactile adhesion testing. Following their training, rats were subjected to transient occlusion of the MCA in the same manner described in Example 10 above. Compound F (60 mg/kg, p.o.) was administered by oral gavage at 1.5 hours and 24 hours after reperfusion and then every other day (with a dose of 30 mk/kg, p.o.) for 28 days. […]
Grip strength was used to assess neuromuscular function. Rat grip strength was determined using a standard rodent grip strength meter (Columbus Instruments, Columbus Ohio). […] Grip strength was assessed with a gentle consistent pull in the caudal direction. The digital reading on the meter was recorded and the mean of three trials reported. […]

For test [4], the system named is db/db mice, permanent occlusion of the MCA. The test can be described thus: pMCAO in db/db mice: infarct volume. It is filed as in vivo. As to conditions: 20 mg/kg i.v. immediately after MCA occlusion, 24 hours. On the procedure: The effect of compounds of the present invention on infarct volume and edema associated with stroke was examined in an animal model of ischemic stroke. In these studies, mice were subjected to permanent occlusion of the middle cerebral artery. Mice were anesthetized intraperitoneally with avertin (0.5 mg/g). Mice were then immobilized in a rodent stereotaxic frame (Kopf Instruments, Tujunga Calif.) and maintained with avertin as needed. The surgical area of the head was swabbed with 70% ethanol and a lateral incision was made between the right orbit and the right ear. […] The distal course of the middle cerebral artery (MCA) was visible through the translucent skull. A small burr-hole craniotomy was performed with a micro-drill (Fine Science Tools, Foster City Calif.). The meninges/dura was removed and the MCA was coagulated by bipolar diathermy. The muscle and soft tissue were replaced and the incision closed with vet-bond adhesive (3M, St. Paul Minn.). These studies were performed in two different mouse models of pMCAO as described below.
To evaluate the effect of compounds of the present invention on infarct volume in an animal model of diabetes, db/db mice were subjected to ischemic stroke. Eight week-old male db/db mice were subjected to permanent occlusion of the MCA as described above. […] Changes in infarct volumes were determined as described above.

Setting [5] is: p.o. 6 mg/kg at reperfusion, 48 hours after MCA occlusion.
[6] abbreviates: 1 Dose 60 mg/kg p.o. at reperfusion.
Where [7] appears, read: 2 Doses 60 mg/kg p.o., at reperfusion and 24 hours later.
[8] abbreviates: p.o. 60 mg/kg at reperfusion, 48 hours after MCA occlusion.

On to `Cc1cccc(C)c1Oc1ccc2c(C#N)nc(C(=O)NCC(=O)O)c(O)c2c1` [Compound AL, {[1-Cyano-6-(2,6-dimethyl-phenoxy)-4-hydroxy-isoquinoline-3-carbonyl]-amino}-acetic acid], for which, in test [1], the “VEGF Fold Increase” value came to 3.8 and the VEGF is 5499 pg/mL. Further, in the test on erythropoietin (EPO), the “EPO Fold Increase” value was 11.31 and the EPO amounted to 213.8 mIU/ml. In addition, in test [2] (setting [5]), the “Percent Reduction in Edema” value turned out to be 12% and the “Percent Reduction in Infarct Volume” value was 51%.

Turning to `COc1ccc(Oc2ccc3c(O)c(C(=O)NCC(=O)O)ncc3c2)cc1` [Compound F, {[4-Hydroxy-7-(4-methoxy-phenoxy)-isoquinoline-3-carbonyl]-amino}-acetic acid], in test [1], the “VEGF Fold Increase” value turned out to be 16.2 and the VEGF was 2564.9 pg/mL. Also, the grip strength result in test [3] was “significantly improved”. For the same molecule, the “reduction in infarct volume” value in test [4] is 52%. Besides, in the test with erythropoietin (EPO), the “EPO Fold Increase” value is 10.5 and the EPO is listed as 65 mIU/ml. Also, in test [2] (setting [6]), the “Percent Reduction in Edema” value is recorded as 28% and the “Percent Reduction in Infarct Volume” value was 42%. Further, in test [2] (setting [7]), the “Percent Reduction in Edema” value was found to be 39% and the “Percent Reduction in Infarct Volume” value stood at 70%. Further, in test [2] (setting [8]), the “Percent Reduction in Edema” value came to 39% and the “Percent Reduction in Infarct Volume” value was 70%.

`N#Cc1nc(C(=O)NCC(=O)O)c(O)c2c(Oc3ccc(F)cc3)cccc12` [Compound AS, {[1-Cyano-5-(4-fluoro-phenoxy)-4-hydroxy-isoquinoline-3-carbonyl]-amino}-acetic acid]: in test [1], the “VEGF Fold Increase” value is 5.6 and the VEGF was determined as 8197 pg/mL. In the test with erythropoietin (EPO), the “EPO Fold Increase” value turned out to be 11.72 and the EPO came out at 221.5 mIU/ml. Also, in test [2] (setting [5]), the “Percent Reduction in Edema” value is reported as 32% and the “Percent Reduction in Infarct Volume” value amounted to 58%.
